In patent US8003759B2, “Protein kinase-inducible domains” (University of Delaware, priority 2006, dated 2011):
pKd: −log10 of the molar value. Entries after “also recorded” stand apart in the source; their conditions may differ. Where two headings read alike, the source gives them in different places.

Assays:
[1] = Tb^3+ binding of pKID peptides by fluorescence titration (dissociation constant determination); details: for pKd: 5 mM HEPES (pH 7.8), 100 mM NaCl, read-out: Kd of peptide-Tb^3+ complex
Description: Fluorescence spectra were collected on a Photon Technology International fluorescence spectrometer model QM-3/2003 with a CW source and a Hamamatsu R928PMT. All experiments were conducted with an excitation wavelength of 280 nm. 6 nm excitation and emission slit widths were used unless otherwise indicated. All spectra were acquired at room temperature, collecting data every 1 nm with a scan rate of 1 nm per second. At least 3 independent binding titrations were conducted for each peptide. All spectra are uncorrected and have not been normalized, and only representative (median), non-averaged spectra are shown, unless otherwise indicated. All fluorescence experiments were conducted using a 495 nm highpass filter (model 495FG03-25 AM-53074; Andover Corporation, Andover, N.H.) on the emission monochromator.
Peptide solutions were prepared by dilution of stock solutions into 5 mM HEPES buffer (pH 7.8) with 100 mM NaCl. Spectra were acquired in 10 mm quartz fluorescence cells (Sterna). Tb^3+ titrations were conducted by dilution of a Tb^3+ solution into a peptide solution as described above. Each individual emission spectrum represents an independently prepared solution of peptide and metal. The Tb^3+ emission band at 544 nm was used to evaluate metal binding.
To determine dissociation constants for Tb^3+-peptide complexes, titrations were conducted in solutions of 5 mM HEPES (pH 7.8) and 100 mM NaCl, with 10 nm emission and excitation slit widths. All fluorescence experiments were conducted using a 495 nm highpass filter (model 495FG03-25 AM-53074; Andover Corporation, Andover, N.H.) on the emission monochromator. All TbCl3 solutions were standardized by titration with a standard solution of EDTA (1 mM) in the presence of xylenol orange indicator (10 μM) and sodium acetate buffer (pH 6.0, 10 mM). 500 μL of the 1 mM Tb^3+ stock solution was diluted to 1 mL to make a 0.5 mM solution and EDTA (1 mM) was added (approximately 500 μL) until the end point was reached (see FIGS. 11-13). The solutions were prepared as serial dilutions of Tb^3+, from 3.3 μM to 450 μM Tb^3+, and the fluorescence emission scan of each solution was acquired. Data points at the emission maximum of 544 nm were plotted against Tb^3+ concentration to calculate the final Kd. Data points indicate the average of at least three independent titrations. Error bars indicate standard error. The data were fit to equation (1) using a non-linear least squares fitting algorithm (KaleidaGraph version 3.6, Synergy Software), where Q fluorescence, Qo=fluorescence of the apopeptide, Qc=fluorescence of peptide-metal complex, Mt=total metal concentration, Kd=dissociation constant and Pt=total peptide concentration (10 μM). Dissociation constants in the presence of 2 mM Mg^2+ or 100 μM Ca^2+ were measured for pKID-PKA peptides to study the effect of these metals on Tb^3+-peptide complex formation.
Dissociation constants of the non-phosphorylated peptides were calculated by defining the maximum fluorescence of the non-phosphorylated peptide-Tb^3+ complex as equal to the maximum fluorescence of the phosphorylated peptide-Tb^3+ complex: Qc (non-phosphorylated peptide)=Qc (phosphorylated peptide), with Qc=the calculated fluorescence of the fully bonded phosphopeptide-Tb^3+ complex. Although the assumption of similar maximum fluorescence intensities of the Tb^3+ complexes of the non-phosphorylated and phosphorylated peptides may not be valid, it provides a measure of relative Tb^3+ fluorescence of the phosphorylated and non-phosphorylated peptides.

Protein Kinase A (PKA) [2] = target: T1, Protein Kinase A (PKA) (Mus musculus, UniProt P05132); assay: Phosphorylation of pKID peptides by protein kinase A (HPLC, fluorescence, ESI-MS); format: biochemical; details: 200 μM peptide, 2.5 units PKA, 35° C., 12 hrs
T1 construct: purchased New England Biolabs
Description: Kinase specificity for protein kinase-inducible domain peptides was examined by incubation of protein kinase A with pKID-PKA, pKID-PKC and pKID-Erk. Experiments were conducted with 2.4 mM ATP (3 μL of freshly prepared 20 mM ATP), PKA buffer (3 μL of 10× buffer), and peptide (200 μM) with water in 25 μL final reaction volume. After incubation at 35° C. for 5 min, PKA enzyme solution (1 μL, 2.5 units) was added to start the reaction. After 12-14 hrs at 35° C., the reaction mixture was analyzed by fluorescence, HPLC and ESI-MS. The kinase reaction mixtures were analyzed by fluorescence by diluting the reaction mixture with 1 mL of a solution containing 5 mM HEPES buffer (pH 7.8), 100 mM NaCl, and 50 μM Tb^3+, and the resulting solution analyzed by fluorescence. Fluorescence experiments were conducted with 10 nm slit widths and a 495 nm highpass filter on the emission monochromator. Fluorescence data (FIG. 7) represent the average of four independent trials. Error bars indicate standard error.

[3] = tested on: endogenous kinase present within the HeLa extracts; assay: Phosphorylation of pKID-PKA in HeLa nuclear extract in the absence of added kinase; format: biochemical; details: no added kinase
Description: Phosphorylation of pKID-PKA in HeLa nuclear extract in the absence of added kinase was also examined. Reaction mixtures were prepared as described previously to a final volume of 25 μL, but protein kinase A was not added. After addition of ATP and incubation for the indicated times, the reaction mixtures (25 μL, 500 μM peptide) were diluted with 200 μL of a solution containing […] buffer (pH 7.8), 100 mM NaCl and 100 μM Tb^3+ and analyzed by fluorescence as described previously. pKID-PKA was phosphorylated by endogenous kinase present within the HeLa extracts to approximately 10% conversion as determined by fluorescence and HPLC (see FIG. 5, right).

Protein Kinase A (PKA) [4] = target: T1, Protein Kinase A (PKA); assay: Phosphorylation of pKID-PKA by protein kinase A in HeLa nuclear extract; format: biochemical; details: HeLa nuclear extract with added PKA, 3 h incubation
[5] = Ho^3+ competition experiment (reduction of Tb^3+ luminescence); format: binding; details: 10 μM phosphorylated peptide, 10 μM Tb^3+, increasing Ho^3+
Description: Competition experiments were used to confirm site-specific lanthanide binding and to address whether pKID peptides are a general phosphorylation-dependent lanthanide-binding motif. In order to determine whether Tb^3+ binding is site-specific, competition experiments were performed with Ho^3+. Ho^3+ solutions were prepared from hydrates of the chloride salts in ultrapure water. The phosphorylated pKID-PKC peptide was tested for Ho^3+ binding by addition of aliquots of Ho^3+ to a solution containing 10 μM phosphorylated pKID-PKC and 10 μM Tb^3+. pKID-Tb^3+-Ho^3+ solutions were allowed to equilibrate for 2 minutes. Fluorescence experiments were conducted using a 495 nm highpass filter (model 495FG03-25 AM-53074; Andover Corporation, Andover, N.H.) on the emission monochromator and 8 nm slit widths.

Substance	pKd ([1]; 10 μM peptide)	phosphorylation by PKA (result in words), determined by HPLC (Protein Kinase A (PKA) [2])	pKd ([1]; + 2 mM Mg^2+)	further results
DKNADGWIDAASPA [non-phosphorylated pKID-Erk, Ac-DKNADGWIDAASPA-NH2, EF hand domain with Glu12 replaced by serine and an Erk recognition domain]	< 2.52	no evidence of phosphorylation; also recorded: not phosphorylated	–	–
Ac-DKNADGWIDAApSPA-NH2 (DKNADGWIDAASPA; HELM PEPTIDE1{[ac].D.K.N.A.D.G.W.I.D.A.A.[O=C([C@H](COP(=O)(O)O)N[*:1])[*:2]].P.A.[am]}$$$$V2.0; SMILES CC[C@H](C)[C@H](NC(=O)[C@H](Cc1c[nH]c2ccccc12)NC(=O)CNC(=O)[C@H](CC(=O)O)NC(=O)[C@H](C)NC(=O)[C@H](CC(N)=O)NC(=O)[C@H](CCCCN)NC(=O)[C@H](CC(=O)O)NC(C)=O)C(=O)N[C@@H](CC(=O)O)C(=O)N[C@@H](C)C(=O)N[C@@H](C)C(=O)N[C@@H](COP(=O)(O)O)C(=O)N1CCC[C@H]1C(=O)N[C@@H](C)C(N)=O) [phosphorylated pKID-Erk]	3.91	–	–	–
Ac-DKNADGWIDAApSLK-NH2 (DKNADGWIDAASLK; HELM PEPTIDE1{[ac].D.K.N.A.D.G.W.I.D.A.A.[O=C([C@H](COP(=O)(O)O)N[*:1])[*:2]].L.K.[am]}$$$$V2.0; SMILES CC[C@H](C)[C@H](NC(=O)[C@H](Cc1c[nH]c2ccccc12)NC(=O)CNC(=O)[C@H](CC(=O)O)NC(=O)[C@H](C)NC(=O)[C@H](CC(N)=O)NC(=O)[C@H](CCCCN)NC(=O)[C@H](CC(=O)O)NC(C)=O)C(=O)N[C@@H](CC(=O)O)C(=O)N[C@@H](C)C(=O)N[C@@H](C)C(=O)N[C@@H](COP(=O)(O)O)C(=O)N[C@@H](CC(C)C)C(=O)N[C@@H](CCCCN)C(N)=O) [phosphorylated pKID-PKC]	3.67	–	–	–
DKNADGWIDRASLA [non-phosphorylated pKID-PKA, Ac-DKNADGWIDRASLA-NH2, EF hand domain with Glu12 replaced by serine and a protein kinase A recognition domain]	< 2.30	–	< 2.30	Tb^3+ binding in the presence of Mg^2+ ([1]; 2 mM Mg^2+): not observed; phosphorylation conversion determined by fluorescence and HPLC [3]: approximately 10%; conversion to phosphorylated peptide by PKA, determined by HPLC (Protein Kinase A (PKA) [2]): > 95%; phosphorylation conversion measured by HPLC (Protein Kinase A (PKA) [4]): 75%
Ac-DKNADGWIDRApSLA-NH2 (DKNADGWIDRASLA; HELM PEPTIDE1{[ac].D.K.N.A.D.G.W.I.D.R.A.[O=C([C@H](COP(=O)(O)O)N[*:1])[*:2]].L.A.[am]}$$$$V2.0; SMILES CC[C@H](C)[C@H](NC(=O)[C@H](Cc1c[nH]c2ccccc12)NC(=O)CNC(=O)[C@H](CC(=O)O)NC(=O)[C@H](C)NC(=O)[C@H](CC(N)=O)NC(=O)[C@H](CCCCN)NC(=O)[C@H](CC(=O)O)NC(C)=O)C(=O)N[C@@H](CC(=O)O)C(=O)N[C@@H](CCCNC(=N)N)C(=O)N[C@@H](C)C(=O)N[C@@H](COP(=O)(O)O)C(=O)N[C@@H](CC(C)C)C(=O)N[C@@H](C)C(N)=O) [phosphorylated pKID-PKA]	3.66	–	3.76	change of dissociation constant of phosphopeptide-Tb^3+ complex in the presence of Ca^2+ ([1]; 100 μM Ca^2+): did not significantly change; pKd ([1]; + 100 μM Ca^2+): 3.64
DKNADGWIDAASLK [non-phosphorylated pKID-PKC, Ac-DKNADGWIDAASLK-NH2, EF hand domain with Glu12 replaced by serine and a protein kinase C recognition domain]	< 2.22	no evidence of phosphorylation; also recorded: not phosphorylated	–	Ho^3+ binding observed via Tb^3+ luminescence [5]: loss of Tb^3+ luminescence
